Patent US20220119354A1, “DIAMINO-SUBSTITUTED PYRIDINES AND PYRIMIDINES AS HERBICIDES” (FMC Corporation, priority 2019, published 2022)

Assays:
Assay type in all cases: in vivo
[1] = system: barnyardgrass (Echinochloa crus-galli); assay: Test B flooded paddy test, barnyardgrass; conditions: Flood, 250 g ai/ha, applied to paddy water, 2-leaf stage, visual evaluation after 13 to 15 d
In short: (§1)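 Growth to two leaves preceded treatment. Flooding to 3 cm above soil surface, then water-applied compound; depth kept constant. Scored visually relative to controls after 13–15 d greenhouse; 100 means full control.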

[2] = system: ragweed (common ragweed, Ambrosia elatior); assay: Test A preemergence, ragweed; conditions: 0 to 100 scale
In short: (§2)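 Ratings reflect visual comparison with untreated controls roughly 10 d after greenhouse application, 0 meaning no effect and 100 complete control. Treatment was by directed soil spray at planting or by spray onto one- to two-leaf plants in loam/sand pots.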

[3] = system: wheat (Triticum aestivum); assay: Test A postemergence, wheat; conditions: 0 to 100 scale
In short: as §2

[4] = system: foxtail, giant (Setaria faberii); assay: Test A postemergence, giant foxtail; conditions: 0 to 100 scale
In short: as §2

[5] = system: kochia (Kochia scoparia); assay: Test A postemergence, kochia; conditions: 0 to 100 scale
In short: as §2

[6] = system: galium (catchweed bedstraw, Galium aparine); assay: Test A postemergence, galium; conditions: 0 to 100 scale
In short: as §2

[7] = system: foxtail, giant (Setaria faberii); assay: Test A preemergence, giant foxtail; conditions: 0 to 100 scale
In short: as §2

[8] = system: kochia (Kochia scoparia); assay: Test A preemergence, kochia; conditions: 0 to 100 scale
In short: as §2

[9] = system: pigweed (Amaranthus retroflexus); assay: Test A preemergence, pigweed; conditions: 0 to 100 scale
In short: as §2

[10] = system: ryegrass, Italian (Lolium multiflorum); assay: Test A postemergence, Italian ryegrass; conditions: 0 to 100 scale
In short: as §2

[11] = system: blackgrass (Alopecurus myosuroides); assay: Test A postemergence, blackgrass; conditions: 0 to 100 scale
In short: as §2

[12] = system: ryegrass, Italian (Lolium multiflorum); assay: Test A preemergence, Italian ryegrass; conditions: 0 to 100 scale
In short: as §2

[13] = system: barnyardgrass (Echinochloa crus-galli); assay: Test A preemergence, barnyardgrass; conditions: 0 to 100 scale
In short: as §2

[14] = system: rice (Oryza sativa); assay: Test B flooded paddy test, rice; conditions: Flood, 250 g ai/ha, applied to paddy water, 2-leaf stage, visual evaluation after 13 to 15 d
In short: as §1

[15] = system: corn (Zea mays); assay: Test A postemergence, corn; conditions: 0 to 100 scale
In short: as §2

[16] = system: ducksalad (Heteranthera limosa); assay: Test B flooded paddy test, ducksalad; conditions: Flood, 250 g ai/ha, applied to paddy water, 2-leaf stage, visual evaluation after 13 to 15 d
In short: as §1

[17] = system: sedge, umbrella (small-flower umbrella sedge, Cyperus difformis); assay: Test B flooded paddy test, umbrella sedge; conditions: Flood, 250 g ai/ha, applied to paddy water, 2-leaf stage, visual evaluation after 13 to 15 d
In short: as §1

[18] = system: barnyardgrass (Echinochloa crus-galli); assay: Test A postemergence, barnyardgrass; conditions: 0 to 100 scale
In short: as §2

[19] = system: ragweed (common ragweed, Ambrosia elatior); assay: Test A postemergence, ragweed; conditions: 0 to 100 scale
In short: as §2

[20] = system: pigweed (Amaranthus retroflexus); assay: Test A postemergence, pigweed; conditions: 0 to 100 scale
In short: as §2

| Structure (SMILES) | Plant response rating, Barnyardgrass (0 to 100 scale, 0 is no effect, 100 is complete control) [1] | Plant response rating, Ragweed ([2]; 125 g ai/ha) | Plant response rating, Ragweed ([2]; 500 g ai/ha) | Plant response rating, Wheat ([3]; 125 g ai/ha) | Plant response rating, Wheat ([3]; 500 g ai/ha) | Plant response rating, Foxtail, Giant ([4]; 125 g ai/ha) | Plant response rating, Foxtail, Giant ([4]; 500 g ai/ha) | Plant response rating, Kochia ([5]; 125 g ai/ha) | Plant response rating, Kochia ([5]; 500 g ai/ha) | Plant response rating, Galium ([6]; 125 g ai/ha) | Plant response rating, Galium ([6]; 500 g ai/ha) | Plant response rating, Foxtail, Giant ([7]; 125 g ai/ha) | Plant response rating, Foxtail, Giant ([7]; 500 g ai/ha) | Plant response rating, Kochia ([8]; 125 g ai/ha) | Plant response rating, Kochia ([8]; 500 g ai/ha) | Plant response rating, Pigweed ([9]; 125 g ai/ha) | Plant response rating, Pigweed ([9]; 500 g ai/ha) | Plant response rating, Ryegrass, Italian ([10]; 125 g ai/ha) | Plant response rating, Ryegrass, Italian ([10]; 500 g ai/ha) | Plant response rating, Blackgrass ([11]; 125 g ai/ha) | further results |
| --- | --- | --- | --- | --- | --- | --- | --- | --- | --- | --- | --- | --- | --- | --- | --- | --- | --- | --- | --- | --- | --- |
| C[C@@H](Nc1ncc(C(F)(F)F)c(N)n1)c1cc2ccc(Cl)cc2o1 [Compound 29] | 0 | 20 | 80 | 0 | 0 | 0 | 50 | 50 | 90 | 80 | 100 | 60 | 90 | 0 | 80 | 90 | 100 | 0 | 10 | 0 | Plant response rating, Blackgrass ([11]; 500 g ai/ha): 10; Plant response rating, Ryegrass, Italian ([12]; 125 g ai/ha): 20; Plant response rating, Ryegrass, Italian ([12]; 500 g ai/ha): 70; Plant response rating, Barnyardgrass ([13]; 125 g ai/ha): 0; Plant response rating, Barnyardgrass ([13]; 500 g ai/ha): 90; Plant response rating, Rice (0 to 100 scale, 0 is no effect, 100 is complete control) [14]: 0; Plant response rating, Corn ([15]; 125 g ai/ha): 0; Plant response rating, Corn ([15]; 500 g ai/ha): 10; Plant response rating, Ducksalad (0 to 100 scale, 0 is no effect, 100 is complete control) [16]: 0; Plant response rating, Sedge, Umbrella (0 to 100 scale, 0 is no effect, 100 is complete control) [17]: 0; Plant response rating, Barnyardgrass ([18]; 125 g ai/ha): 20; Plant response rating, Barnyardgrass ([18]; 500 g ai/ha): 80; Plant response rating, Ragweed ([19]; 125 g ai/ha): 20; Plant response rating, Ragweed ([19]; 500 g ai/ha): 90; Plant response rating, Pigweed ([20]; 125 g ai/ha): 100; Plant response rating, Pigweed ([20]; 500 g ai/ha): 100 |
| C[C@@H](Nc1ncc(C(F)(F)F)c(N)n1)c1cc2ccc(C(F)(F)F)cc2o1 [Compound 15] | 0 | 30 | 90 | 0 | 0 | 30 | 80 | 40 | 80 | 60 | 80 | 20 | 90 | 40 | 50 | 80 | 100 | 0 | 30 | 0 | Plant response rating, Blackgrass ([11]; 500 g ai/ha): 30; Plant response rating, Ryegrass, Italian ([12]; 125 g ai/ha): 0; Plant response rating, Ryegrass, Italian ([12]; 500 g ai/ha): 70; Plant response rating, Barnyardgrass ([13]; 125 g ai/ha): 20; Plant response rating, Barnyardgrass ([13]; 500 g ai/ha): 70; Plant response rating, Rice (0 to 100 scale, 0 is no effect, 100 is complete control) [14]: 0; Plant response rating, Corn ([15]; 125 g ai/ha): 0; Plant response rating, Corn ([15]; 500 g ai/ha): 20; Plant response rating, Ducksalad (0 to 100 scale, 0 is no effect, 100 is complete control) [16]: 0; Plant response rating, Sedge, Umbrella (0 to 100 scale, 0 is no effect, 100 is complete control) [17]: 0; Plant response rating, Barnyardgrass ([18]; 125 g ai/ha): 30; Plant response rating, Barnyardgrass ([18]; 500 g ai/ha): 30; Plant response rating, Ragweed ([19]; 125 g ai/ha): 20; Plant response rating, Ragweed ([19]; 500 g ai/ha): 40; Plant response rating, Pigweed ([20]; 125 g ai/ha): 90; Plant response rating, Pigweed ([20]; 500 g ai/ha): 90 |
